Tested on: E. coli
Experiment: TVC viability of E. coli in whole blood with SPS over time
Assay type: cell-based
Procedure: 2×5 mL whole blood or BacTec PLUS aerobic blood broth (1:3 ratio) aliquoted for each sample-set (E. coli and NSC sample). Then SPS added as follows:
Then 5 μL of E. coli 1E-2 preculture added to each 5-mL specimen tube to recreate standard 1E-5 dilution sample
• 1.88 μL neat o/n in Nutrient Broth (NB) added to 3 mL NB; and incubated for 2 hours at 37° C., 500 rpm • After 2 hours, E. coli preculture diluted 10-fold in warm NB; and then 5 μL added to each 5 mL specimen tube (prepared as shown in test conditions) • Magnitor Test initiated immediately, and TVCs performed as detailed below.
• 100 μL on COL plates at Time Zero • Sample bijous, containing approximately 2 mL sample, left at room temperature (20.4° C.) on bench (static) • TVCs performed at time points shown in table: samples mixed thoroughly before plating

Substance: Sodium polyanethol sulfonate [SPS]
- FOLD INCR. 0-2 hr (WB SPS 0.01 %): 3.39
- TVC colonies (WB SPS 0.01 %, EC Time 2 hrs): 498 colonies
- TVC colonies (WB SPS 0.01 %, EC Time 4 hrs): TNTC
- TVC colonies (WB SPS 0.01 %, EC Time 6 hrs): TNTC
- TVC colonies (WB SPS 0.01 %, EC Time 21 hrs): LAWN
- TVC colonies (WB SPS 0.01 %, EC Time ZERO): 147 colonies
- FOLD INCR. 0-2 hr (WB SPS 0.02 %): 4.67
- TVC colonies (WB SPS 0.02 %, EC Time 2 hrs): 448 colonies
- TVC colonies (WB SPS 0.02 %, EC Time 4 hrs): TNTC
- TVC colonies (WB SPS 0.02 %, EC Time 6 hrs): TNTC
- TVC colonies (WB SPS 0.02 %, EC Time 21 hrs): LAWN
- TVC colonies (WB SPS 0.02 %, EC Time ZERO): 96 colonies
- FOLD INCR. 0-2 hr (WB SPS 0.04 %): 3.12
- TVC colonies (WB SPS 0.04 %, EC Time 2 hrs): 1106 colonies
- TVC colonies (WB SPS 0.04 %, EC Time 4 hrs): TNTC
- TVC colonies (WB SPS 0.04 %, EC Time 6 hrs): TNTC
- TVC colonies (WB SPS 0.04 %, EC Time 21 hrs): LAWN
- TVC colonies (WB SPS 0.04 %, EC Time ZERO): 354 colonies
- FOLD INCR. 0-2 hr (WB SPS 0.06 %): 5.94
- TVC colonies (WB SPS 0.06 %, EC Time 2 hrs): 760 colonies
- TVC colonies (WB SPS 0.06 %, EC Time 4 hrs): TNTC
- TVC colonies (WB SPS 0.06 %, EC Time 6 hrs): TNTC
- TVC colonies (WB SPS 0.06 %, EC Time 21 hrs): LAWN
- TVC colonies (WB SPS 0.06 %, EC Time ZERO): 128 colonies
- FOLD INCR. 0-2 hr (WB SPS 0.08 %): 1.52
- TVC colonies (WB SPS 0.08 %, EC Time 2 hrs): 491 colonies
- TVC colonies (WB SPS 0.08 %, EC Time 4 hrs): TNTC
- TVC colonies (WB SPS 0.08 %, EC Time 6 hrs): TNTC
- TVC colonies (WB SPS 0.08 %, EC Time 21 hrs): LAWN
- TVC colonies (WB SPS 0.08 %, EC Time ZERO): 322 colonies
- FOLD INCR. 0-2 hr (WB SPS 0.1 %): 2.71
- TVC colonies (WB SPS 0.1 %, EC Time 2 hrs): 341 colonies
- TVC colonies (WB SPS 0.1 %, EC Time 4 hrs): TNTC
- TVC colonies (WB SPS 0.1 %, EC Time 6 hrs): TNTC
- TVC colonies (WB SPS 0.1 %, EC Time 21 hrs): LAWN
- TVC colonies (WB SPS 0.1 %, EC Time ZERO): 126 colonies

— patent US20240210394A1, “MICROORGANISM CAPTURE FROM ANTIMICROBIAL-CONTAINING SOLUTION” (MOMENTUM BIOSCIENCE LIMITED, priority 2019, published 2024)
